Values joined by “and” are separate entries in the source; they are usually repeats but may differ in a detail not shown here. Equal entries are not always repeated. Where two headings read alike, the source gives them in different places.
What was measured:
[1] = target: T1, human erythrocyte 20S proteasomes, chymotrypsin-like activity (Homo sapiens, UniProt P28074); experiment: Chymotrypsin-like activity of human erythrocyte 20S proteasomes; type: biochemical
T1 construct: Human erythrocyte 20S proteasomes were obtained from BIOMOL (Cat. # SE-221); purchased BIOMOL SE-221; host or cells: human erythrocytes

Caspase-3 = Caspase-3 activity assay in Jurkat cells; type: cell-based, human; details: EC50 concentration, 19 hours
Experimental: Jurkat cells were plated at 2×10^6 cells/3 mL per well in a 6-well plate and incubated at 37° C., 5% (v/v) CO2 and 95% (v/v) humidity. […] Bhalla, et al., Blood 82:3133 (1993). […] Cells treated with 0.25% DMSO served as the negative control. The cells were collected by centrifugation and the media removed. Cell pellets were processed for the Caspase-3 activity assay as described in the manufacturer's protocol (EnzChek Caspase-3 Assay Kit from Molecular Probes (E-13183; see Appendix G, which form a part of this application and is also available at hypertext transfer protocol on the worldwide web at “probes.com.media/pis/mp13183.pdf.”. In brief, cell pellets were lysed on ice, mixed with the EnzChek Caspase-3 components in a 96-well plate, and then incubated in the dark for 30 minutes prior to reading fluorescence of cleaved benzyloxycarbonyl-DEVD-[…] using a Packard Fusion with λex=485 nm and λem=530 nm filters. Protein concentrations for lysates were determined using the BCA Protein Assay Kit (Pierce) and these values were used for normalization.

[2] = test system: 60 human tumor cell lines; experiment: NCI screening panel of 60 human tumor cell lines (sulforhodamine B)
[3] = Maximum tolerated dose determination in female BALB/c mice; type: in vivo, mouse
Source text: In vivo studies were designed to determine the MTD of Salinosporamide A when administered intravenously to female BALB/c mice.
Animals were observed daily for clinical signs and were weighed individually twice weekly until the end of the experiment (maximum of 14 days after the last day of dosing).

HT-29 = experiment: Cell growth inhibition assay (resazurin, 48 h); type: cell-based, human; details: HT-29, 48 h
Experimental: (§1) RPMI 8226 (CCL-155), HT-29 (HTB-38), and B16-F10 (CRL-6475) cells were purchased from ATCC. RPMI 8226 cells were maintained in RPMI 1640 media supplemented with 10% (v/v) FBS, 2 mM L-glutamine, 1 mM sodium pyruvate and Penicillin/Streptomycin at 100 IU/ml and 100 μg/ml, respectively. HT-29 cells were maintained in McCoys 5A supplemented with 10% (v/v) FBS, 2 mM L-glutamine, 1 mM sodium pyruvate, 1% (v/v) non-essential amino acids, 10 mM HEPES and Penicillin/Streptomycin at 100 IU/ml and 100 μg/ml, respectively. B16-F10 cells were maintained in DMEM supplemented with 10% (v/v) FBS, 2 mM L-glutamine, 10 mM HEPES and Penicillin/Streptomycin at 100 IU/ml and 100 μg/ml, respectively.
(§2) RPMI 8226 cells were seeded at 2×10^4 cells/well in 90 μl RPMI media containing 10% (v/v) FBS or 1% (v/v) FBS into 96 well black-walled, clear-bottom tissue culture plates. […] Formulae II-16, II-17 and Formula II-18 were serially diluted in media containing 1% or 10% FBS and added in triplicate to the test wells. […] The final concentration of Formula II-18 ranged from 2 μM to 630 pM.

PC-3 = experiment: Cell growth inhibition assay (resazurin, 48 h)
MES-SA/Dx5 = experiment: Cell growth inhibition assay (resazurin, 48 h)
Experimental: (§3) Concentrations ranging from 6.32 μM to 2 nM were tested for II-2 and II-4.
The multidrug resistant MES-SA/Dx5 tumor cell line was derived from the human uterine sarcoma MES-SA tumor cell line and expresses elevated P-Glycoprotein (P-gp), an ATP dependent efflux pump.

RPMI 8226 cells = experiment: PARP and Pro-Caspase 3 cleavage in RPMI 8226 cells (western blot); type: cell-based, human; details: 100 nM; 0, 8 or 24 hours
Experimental: Total protein lysates were made and 20 μg of the lysates were then resolved under reducing/denaturing conditions and blotted onto nitrocellulose. The blots were then probed with anti-PARP or anti-caspase 3 antibodies followed by stripping and reprobing with an anti-actin antibody.
25 μg of the lysates were then resolved under reducing/denaturing conditions and blotted onto nitrocellulose. The blots were then probed with anti-PARP or anti-caspase 3 antibodies followed by stripping and reprobing with an anti-actin antibody.

RAW264.7 cells [4] = experiment: cells; details: Mus musculus
HL-60/MX2 = experiment: Cell growth inhibition assay (resazurin, 48 h); details: for EC50: HL-60/MX2, 48 h
Experimental: The DNA binding agent Mitoxantrone was included as a control, as HL-60/MX2 cells are reported to be resistant to this chemotherapeutic agent (Harker W. G. et al. 1989).
as §3
HL-60/MX2 is a multidrug resistant tumor cell line derived from the human promyelocytic leukemia cell line, HL-60 and expresses reduced topoisomerase II activity. […] Mitoxantrone, the topoisomerase II targeting agent was included as a control.

PARP = PARP cleavage in Jurkat cells (western blot); type: cell-based, human; details: 100 nM Salinosporamide A or 350 nM Staurosporine
RPMI 8226 = experiment: Cell growth inhibition assay (resazurin, 48 h); details: for % cytotoxicity: RPMI 8226
Experimental: as §1, §2

CCD-27sk = experiment: Cytotoxic activity, 48 h, normal human fibroblasts; type: cell-based
Cathepsin B = Cathepsin B (Homo sapiens, UniProt P07858); experiment: Inhibition of Cathepsin B; type: biochemical
RAW264.7 cells [5] = test system: RAW264.7 cells
IκBα = experiment: Western blot of total and phosphorylated IκBα, HEK293 and NF-κB/Luc 293 cells; type: cell-based, human; details: 50 and 500 nM, 1 hour pre-treatment
Experimental: Endogenous protein levels were assessed in both HEK293 cells and the NF-κB/Luc 293 reporter clone.
Antibodies against total and phosphorylated forms of IκBα were used to determine the endogenous level of each protein and anti-Tubulin antibody was used to confirm equal loading of protein.

In the case of C[C@@]12OC(=O)[C@]1([C@@H](O)[C@@H]1C=CCCC1)NC(=O)[C@@H]2CCCl [Formula II-16, Salinosporamide A], the EC50 [1] is reported as ~3 nM and ~4 nM, the Caspase-3 activity (Caspase-3) is reported as “activation of Caspase-3” and the GI50 ([2]; 60 cell, 48 h, read-out: mean GI50) is reported as < 10 nM. For the same compound, the CC50 ([2]; SK-MEL-28, read-out: LC50) was < 10 nM, the CC50 ([2]; read-out: LC50) was < 10 nM and the “well tolerated dose, daily for five consecutive days” value ([3]; i.v. qdx5, female BALB/c mice) was “up to 0.1 mg/kg”. For the same compound, the “tolerated single intravenous dose” value ([3]; qdx1, female BALB/c mice) was “up to 0.25 mg/kg”, the EC50 (HT-29) was 40 ± 26 nM and the EC50 (HT-29; Homo sapiens) was 47 nM. For the same compound, the “% cytotoxicity” value (PC-3; PC-3) was 88% and 89%, the EC50 (PC-3; PC-3, 48 h) was 64 ± 26 nM and the EC50 (MES-SA/Dx5; Homo sapiens, MES-SA/Dx5, 48 h) was 23 ± 1 nM. The “% cytotoxicity” value (MES-SA/Dx5; MES-SA/Dx5) was 92 ± 2%, the “cleavage of PARP and Pro-caspase 3” value (RPMI 8226 cells) was “cleavage of PARP and Pro-caspase 3 in a time-dependent manner” and the EC50 (RAW264.7 cells [4]; RAW264.7, read-out: EC50, inhibition of LeTx-mediated cytotoxicity) was < 4 nM. For the same compound, the viability at […] (RAW264.7 cells [4]; RAW264.7, read-out: cell-viability, compound + LeTx) was 82%, the “% cytotoxicity” value (HL-60/MX2; HL-60/MX2) was 84% and 89% and the EC50 (HL-60/MX2) was 25 nM. The EC50 (HL-60/MX2; Homo sapiens, HL60/MX2, 48 h) was 28 nM, the “cleavage of PARP” value (PARP) was “cleavage of PARP within the Jurkat cells in a time-dependent fashion” and the EC50 (RPMI 8226; Homo sapiens, RPMI-8226, 48 h, RPMI 8226, 48 h) was 8.6 ± 1.9 nM. For the same compound, the “% cytotoxicity” value (RPMI 8226; listed as II-16) was 94 ± 0%, the “% cytotoxicity” value (RPMI 8226; listed as Salinosporamide A) was 94 ± 1% and the EC50 (CCD-27sk) was 196 nM. For the same compound, the EC50 (Cathepsin B) was > 200000 nM, the EC50 (RAW264.7 cells [5]) was 3.6 nM and the “increase in the viability of LeTx-treated cells compared to LeTx treatment alone” value (RAW264.7 cells [5]) was 10 fold. The “effect on total IκBα and phospho-IκBα upon TNF-α stimulation” value (IκBα) was “reduced the degradation of total IκBα but also retained the phospho-IκBα level”.
